*1 amine or outer side, *2 acyl side, *3 side chain or, on linkers, in order; H or OH if unused. Where a SMILES comes first, the peptide text is derived from it. Bridges are numbered along the chain shown (N, C = ends). [ ]: non-standard residue; d: D form. The star is where a group is joined. hPhe(3,5-F2-4-CF3) = N[C@@H](CCc1cc(F)c(C(F)(F)F)c(F)c1)C(=O)O; X23 = O=C([C@H](Cc1ccc(C(F)(F)F)cc1)N(CC1CCCC1)[*:1])[*:2]; hPhe(3-Cl-4-CF3) = N[C@@H](CCc1ccc(C(F)(F)F)c(Cl)c1)C(=O)O; X48 = CCCN([C@@H](Cc1ccc(OCC=[*:3])cc1)C(=O)[*:2])[*:1]; NPrPhe(4-CF3) = CCCN[C@@H](Cc1ccc(C(F)(F)F)cc1)C(=O)O; NPrPhe(4-Me) = CCCN[C@@H](Cc1ccc(C)cc1)C(=O)O; X47 = CN([C@@H](CCC=[*:3])C(=O)[*:2])[*:1]; NMeGly(cPent) = CN[C@H](C(=O)O)C1CCCC1; Pro(4,4-F2) = O=C(O)[C@@H]1CC(F)(F)CN1; Hyp = O=C(O)[C@@H]1C[C@@H](O)CN1; NMeD = CN[C@@H](CC(=O)O)C(=O)O; NMeL = CN[C@@H](CC(C)C)C(=O)O; Morpholide = C1CN(*)CCO1; NMeA = CN[C@@H](C)C(=O)O; Ac5c = NC1(C(=O)O)CCCC1; Aze = O=C(O)[C@@H]1CCN1; NEtG = CCNCC(=O)O; Sar = CNCC(=O)O
Key:
[1] = system: human lung cancer strain NCI-H441; assay type: cell-based
Summary of the method: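 Signal came from […] measured per well once the reagent was added. Beforehand, cells were cultured at 37°C and 5% carbon dioxide on a compound series serially diluted in dimethyl sulfoxide.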

[2] = target: GDP-bound NRAS wild-type protein (Homo sapiens, UniProt P01111); assay: Binding to NRAS by surface plasmon resonance (SPR), KD and KD ratio to KRAS
GDP-bound NRAS wild-type protein, sequence (P01111 whole entry): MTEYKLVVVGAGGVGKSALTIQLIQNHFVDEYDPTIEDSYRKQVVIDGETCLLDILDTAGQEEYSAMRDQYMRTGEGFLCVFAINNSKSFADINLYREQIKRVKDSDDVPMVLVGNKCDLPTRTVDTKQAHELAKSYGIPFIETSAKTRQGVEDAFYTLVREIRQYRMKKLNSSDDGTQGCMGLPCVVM
Summary of the method: (§1)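 Each cycle, GDP-bound biotin-Avi RAS was captured (~100–300 RU), compound concentrations were injected low to high for 75 s each at 100 µL/min, then the chip was regenerated. Buffer: HBS pH 7.4, 10 mM MgCl2, 10 µM GDP, 1 mM DTT, 4% DMSO; 30°C. KD from a 1:1 binding model.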

[3] = target: HRAS wild-type protein (Homo sapiens, UniProt P01112); assay: Binding to HRAS by surface plasmon resonance (SPR), KD and KD ratio to KRAS
HRAS wild-type protein, sequence (P01112 whole entry): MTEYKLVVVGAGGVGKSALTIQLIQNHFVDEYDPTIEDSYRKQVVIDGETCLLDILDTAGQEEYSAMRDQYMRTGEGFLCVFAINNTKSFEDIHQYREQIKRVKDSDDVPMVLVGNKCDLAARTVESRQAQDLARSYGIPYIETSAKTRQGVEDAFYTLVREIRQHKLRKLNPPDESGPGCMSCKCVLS
Summary of the method: as §1

[4] = ratio of the KD value with respect to GDP-bound NRAS wild-type protein to the KD value with respect to KRAS
[5] = ratio of the KD value with respect to HRAS wild-type protein to the KD value with respect to KRAS
[6] = ratio of KD for GDP-bound NRAS wild-type protein to KD for KRAS
[7] = ratio of KD for HRAS wild-type protein to KD for KRAS

Row | Structure (SMILES) | IC50 [1] [µM] | NRAS /KRAS [2, 4] | HRAS /KRAS [3, 5] | NRAS /KRAS [2, 6] | HRAS /KRAS [3, 7] | further results
1 | CCC[C@H]1C(=O)N[C@@H](C2CCCC2)C(=O)N(C)CC(=O)N(C)[C@H]2C/C=C\CCN(C2=O)[C@@H](Cc2ccc(C)cc2)C(=O)N(C)CC(=O)N[C@@H](CCc2ccc(C(F)(F)F)c(Cl)c2)C(=O)N2C[C@H](OCC)C[C@H]2C(=O)NC2(CC(C)(C)C2)C(=O)N(C)[C@@H](C2CCCC2)C(=O)N(C)[C@H](C(=O)N(C)C)CC(=O)N1C [PP2198] | 0.0138 | A (a compound having 10 or more and less than 20 is denoted as A) | A (a compound having 10 or more and less than 20 is denoted as A) | – | – | –
2 | CCCN1C(=O)CN(CC)C(=O)CN(C)C(=O)[C@H]([C@@H](C)CC)NC(=O)[C@H](CC(C)C)N(C)C(=O)C[C@@H](C(=O)N2CCOCC2)N(C)C(=O)[C@H](C2CCCC2)N(C)C(=O)C2(CCCC2)NC(=O)[C@@H]2CCCN2C(=O)[C@H](CCc2ccc(C(F)(F)F)c(Cl)c2)NC(=O)CN(CC)C(=O)[C@@H]1Cc1ccc(C)cc1 [PP0069] ([NMeL]I[Sar][NEtG][NPrPhe(4-Me)][NEtG][hPhe(3-Cl-4-CF3)]P[Ac5c][NMeGly(cPent)][NMeD]-Morpholide; lactam N-11) | 0.0397 | – | – | C (A compound having a KD ratio of 0.1 or more and less than 3 is denoted as C) | C (A compound having a KD ratio of 0.1 or more and less than 3 is denoted as C) | –
3 | CCO[C@@H]1C[C@H]2C(=O)NC3(CCC3)C(=O)N(C)[C@@H](C3CCCC3)C(=O)N(C)[C@H](C(=O)N(C)CC)CC(=O)N(C)[C@@H](C)C(=O)N[C@@H]([C@@H](C)CC)C(=O)N(C)CC(=O)N(C)[C@H]3C/C=C\CCN(C3=O)[C@@H](Cc3ccc(C(F)(F)F)cc3)C(=O)N(C)CC(=O)N[C@@H](CCc3cc(F)c(C(F)(F)F)c(F)c3)C(=O)N2C1 [PP1302] | 0.0092 | – | – | – | – | NRAS /KRAS ([2]; ratio of KD with respect to GDP-bound NRAS wild-type protein to KD with respect to KRAS): A (a compound having 10 or more and less than 20 is denoted as A); HRAS /KRAS ([3]; ratio of KD with respect to HRAS wild-type protein to KD with respect to KRAS): A (a compound having 10 or more and less than 20 is denoted as A)
4 | CC[C@H](C)[C@@H]1NC(=O)[C@H](CC(C)C)N(C)C(=O)C[C@@H](C(=O)N(CC)CC)N(C)C(=O)[C@H](C2CCCC2)N(C)C(=O)C2(CCC2)NC(=O)[C@@H]2C[C@H](C)CN2C(=O)[C@H](CCc2ccc(C(F)(F)F)c(OC)c2)NC(=O)CN(C)C(=O)[C@H](Cc2ccc(C)cc2)N2CC/C=C\C[C@@H](C2=O)N(C)C(=O)CN(C)C1=O [PP1885] | 0.0183 | – | – | – | – | NRAS /KRAS ([2]; ratio of KD value for GDP-bound NRAS wild-type protein to KD value for KRAS (SPR)): AA (a compound having 20 or more is denoted as AA); HRAS /KRAS ([3]; ratio of KD value for HRAS wild-type protein to KD value for KRAS (SPR)): A (a compound having 10 or more and less than 20 is denoted as A)
5 | CCO[C@@H]1C[C@H]2C(=O)NC3(CC(C)(C)C3)C(=O)N(C)[C@@H](C3CCCC3)C(=O)N(C)[C@H](C(=O)N(C)CC)CC(=O)N(C)[C@@H](COC)C(=O)N[C@@H]([C@@H](C)CC)C(=O)N(C)CC(=O)N(C)[C@H]3C/C=C\CCN(C3=O)[C@@H](Cc3ccc(C(F)(F)F)cc3)C(=O)N(C)CC(=O)N[C@@H](CCc3ccc(Cl)c(Cl)c3)C(=O)N2C1 [PP2835] | 0.013 | – | – | A (a compound having 10 or more and less than 20 is denoted as A) | A (a compound having 10 or more and less than 20 is denoted as A) | –
6 | CC[C@H](C)[C@@H]1NC(=O)[C@H](CC(C)C)N(C)C(=O)C[C@@H](C(=O)N2CCOCC2)N(C)C(=O)[C@H](C2CCCC2)N(C)C(=O)C2(CCCC2)NC(=O)[C@@H]2CCCN2C(=O)[C@H](CCc2ccc(C(F)(F)F)c(Cl)c2)NC(=O)CN(C)C(=O)[C@H](Cc2ccc(C(F)(F)F)cc2)N(CC2CCCC2)C(=O)[C@@H]2CCN2C(=O)[C@H](C)N(C)C1=O [PP0110] ([NMeL]I[NMeA][Aze][X23][Sar][hPhe(3-Cl-4-CF3)]P[Ac5c][NMeGly(cPent)][NMeD]-Morpholide; lactam N-11) | 0.0565 | – | – | C (A compound having a KD ratio of 0.1 or more and less than 3 is denoted as C) | B (a compound having 3 or more and less than 10 is denoted as B) | –
7 | CCCN1C(=O)CN(C)C(=O)CN(C)C(=O)[C@H]([C@@H](C)CC)NC(=O)[C@H](CC(C)C)N(C)C(=O)C[C@@H](C(=O)N2CCOCC2)N(C)C(=O)[C@H](C2CCCC2)N(C)C(=O)C2(CCCC2)NC(=O)CN(CC)C(=O)[C@H](CCc2ccc(C(F)(F)F)c(Cl)c2)NC(=O)CN(C)C(=O)[C@@H]1Cc1ccc(C(F)(F)F)cc1 [PP0144] ([NMeL]I[Sar][Sar][NPrPhe(4-CF3)][Sar][hPhe(3-Cl-4-CF3)][NEtG][Ac5c][NMeGly(cPent)][NMeD]-Morpholide; lactam N-11) | 0.0183 | – | – | B (a compound having 3 or more and less than 10 is denoted as B) | C (A compound having a KD ratio of 0.1 or more and less than 3 is denoted as C) | –
8 | CCCO[C@@H]1C[C@H]2C(=O)NC3(CCC3)C(=O)N(C)[C@@H](C3CCCC3)C(=O)N(C)[C@H](C(=O)N3CCOCC3)CC(=O)N(C)[C@@H](COC)C(=O)N[C@@H]([C@@H](C)CC)C(=O)N(C)CC(=O)N(C)[C@H]3CCCCCN(C3=O)[C@@H](Cc3ccc(C(F)(F)F)cc3)C(=O)N(C)CC(=O)N[C@@H](CCc3cc(F)c(C(F)(F)F)c(F)c3)C(=O)N2C1 [PP0838] | 0.0504 | – | – | B (a compound having 3 or more and less than 10 is denoted as B) | B (a compound having 3 or more and less than 10 is denoted as B) | –
9 | CCCN1C(=O)CN(C)C(=O)CN(C)C(=O)[C@H]([C@@H](C)CC)NC(=O)[C@@H]2CCC=CCOc3ccc(cc3)C[C@H]1C(=O)N(C)CC(=O)N[C@@H](CCc1cc(F)c(C(F)(F)F)c(F)c1)C(=O)N1C[C@H](OCC)C[C@H]1C(=O)NC1(CCCC1)C(=O)N(C)[C@@H](C1CCCC1)C(=O)N(C)[C@H](C(=O)N(C)C)CC(=O)N2C [PP0900] ([X47]I[Sar][Sar][X48][Sar][hPhe(3,5-F2-4-CF3)][Hyp](Et)[Ac5c][NMeGly(cPent)][NMeD]-NMe2; staple 1-5; lactam N-11) | 0.0049 | – | – | C (A compound having a KD ratio of 0.1 or more and less than 3 is denoted as C) | C (A compound having a KD ratio of 0.1 or more and less than 3 is denoted as C) | –
10 | CCO[C@@H]1C[C@H]2C(=O)NC3(CCC(F)(F)CC3)C(=O)N(C)[C@@H](C3CCCC3)C(=O)N(C)[C@H](C(=O)N3CCOCC3)CC(=O)N(C)[C@@H](CC(C)C)C(=O)N[C@@H]([C@@H](C)CC)C(=O)N(C)CC(=O)N(C)[C@H]3CCCCCN(C3=O)[C@@H](Cc3ccc(C(F)(F)F)cc3)C(=O)N(C)CC(=O)N[C@@H](CCc3cc(F)c(C(F)(F)F)c(F)c3)C(=O)N2C1 [PP0728] | 0.252 | B (a compound having 3 or more and less than 10 is denoted as B) | B (a compound having 3 or more and less than 10 is denoted as B) | – | – | –
11 | CCC[C@@H]1C[C@H]2C(=O)NC3(CCC3)C(=O)N(C)[C@@H](C3CCCC3)C(=O)N(C)[C@H](C(=O)N(C)C)CC(=O)N(C)[C@@H](CC(C)C)C(=O)N[C@@H]([C@@H](C)CC)C(=O)N(C)CC(=O)N(C)[C@H]3C/C=C\CCN(C3=O)[C@@H](Cc3ccc(C)cc3)C(=O)N(C)CC(=O)N[C@@H](CCc3cc(F)c(C(F)(F)F)c(F)c3)C(=O)N2C1 [PP2231] | 0.0162 | A (a compound having 10 or more and less than 20 is denoted as A) | B (a compound having 3 or more and less than 10 is denoted as B) | – | – | –
12 | CCCN1C(=O)CN(C)C(=O)CN(CC)C(=O)[C@H]([C@@H](C)CC)NC(=O)[C@H](CC(C)C)N(C)C(=O)C[C@@H](C(=O)N(C)C)NC(=O)[C@H](C2CCCC2)N(C)C(=O)C2(CCCC2)NC(=O)[C@@H]2CC(F)(F)CN2C(=O)[C@H](CCc2ccc(C(F)(F)F)c(Cl)c2)NC(=O)CN(C)C(=O)[C@@H]1Cc1ccc(C(F)(F)F)cc1 [PP0369] ([NMeL]I[NEtG][Sar][NPrPhe(4-CF3)][Sar][hPhe(3-Cl-4-CF3)][Pro(4,4-F2)][Ac5c][NMeGly(cPent)]D-NMe2; lactam N-11) | 0.0689 | – | – | B (a compound having 3 or more and less than 10 is denoted as B) | C (A compound having a KD ratio of 0.1 or more and less than 3 is denoted as C) | –
13 | CCCN(C)C(=O)[C@@H]1CC(=O)N(C)[C@@H](CC(C)C)C(=O)N[C@@H]([C@@H](C)OC)C(=O)N(C)CC(=O)N(C)[C@H]2C/C=C\CCN(C2=O)[C@@H](Cc2ccc(C(F)(F)F)cc2)C(=O)N(C)CC(=O)N[C@@H](CCc2cc(F)c(C(F)(F)F)c(F)c2)C(=O)N2C[C@H](OCC)C[C@H]2C(=O)NC2(CC(C)(C)C2)C(=O)N(C)[C@@H](C2CCCC2)C(=O)N1C [PP1917] | 0.0225 | A (a compound having 10 or more and less than 20 is denoted as A) | A (a compound having 10 or more and less than 20 is denoted as A) | – | – | –

— patent EP4603105A1, “PHARMACEUTICAL COMPOSITION CONTAINING CYCLIC COMPOUND HAVING SELECTIVE KRAS INHIBITORY EFFECT AGAINST HRAS AND NRAS” (CHUGAI SEIYAKU KABUSHIKI KAISHA, priority 2022, dated 2024)
